Laboratory results reported in publication PMC12797170, “Potent Competitive Inhibitors of Ecto-5′-nucleotidase (CD73) based on 6‑(Het)aryl-7-deazapurine Ribonucleoside 5′‑O‑Bisphosphonates” (ACS Pharmacology & Translational Science, 2025).
Values after ≈ are worked out from the molar mass of the structure shown. Read-outs that look alike come from different tables or passages of the source.

Assays:
in vitro [1] = conditions: human, plasma
HL-60 = assay: In vitro cytotoxic activity; type: cell-based; conditions: Homo sapiens
Protocol: (§1) All the compounds were also tested for their in vitro cytotoxic activity on a small panel of four cancer cell lines (CCRF-CEM, HepG2, HeLa S3, HL-60) and nonmalignant human dermal fibroblasts (NHDF).

HepG2 = assay: In vitro cytotoxic activity; type: cell-based; conditions: Homo sapiens
Protocol: as §1

HeLa S3 = assay: In vitro cytotoxic activity; type: cell-based; conditions: Homo sapiens
Protocol: as §1

[2] = test system: nonmalignant human dermal fibroblasts (NHDF); assay: In vitro cytotoxic activity; type: cell-based
Protocol: as §1

CCRF-CEM = assay: In vitro cytotoxic activity; type: cell-based; conditions: Homo sapiens
Protocol: as §1

in vitro [3] = conditions: mouse, plasma
[4] = In vivo pharmacokinetic study, intravenous; set-up: species or system male CD-1 mice
Protocol: The pharmacokinetic study was performed by Bienta (Enamine Biology Services) using male CD-1 mice (3 animals, 9 weeks old, body weight ranging from 29.2 to 33.7 g) following intravenous administration. Levels of the test compound were determined by LC-MS/MS in blood plasma over time (seven sampling time points: 5, 15, 30, 60, 120, 240, and 480 min) after a single dose.
Animal treatment and samples preparation were conducted by the Animal Laboratory personnel at Enamine/Bienta.

[5] = Kinetic solubility in PBS; type: physicochemical; conditions: phosphate-buffered saline, pH 7.4, aqueous buffer, kinetic from dmso stock
Procedure, shortened: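 Echo-MS quantitation with calibration from 0.05 to 4 μM, after 1:99 dilution of filtrate into 50% acetonitrile. Filtrate came from a 100 μM PBS (pH 7.4) solution equilibrated 2 h at room temperature with shaking, in duplicate.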

[6] = Plasma protein binding, equilibrium dialysis, human plasma; type: in vitro ADME; conditions: undiluted plasma
[7] = molecular target: T1, recombinant human CD73 (hCD73) (Homo sapiens, UniProt P21589); assay: CD73 activity assay on recombinant human CD73; type: biochemical; conditions: ΔGexp = RT ln Ki
T1 sequence (P21589 27-574): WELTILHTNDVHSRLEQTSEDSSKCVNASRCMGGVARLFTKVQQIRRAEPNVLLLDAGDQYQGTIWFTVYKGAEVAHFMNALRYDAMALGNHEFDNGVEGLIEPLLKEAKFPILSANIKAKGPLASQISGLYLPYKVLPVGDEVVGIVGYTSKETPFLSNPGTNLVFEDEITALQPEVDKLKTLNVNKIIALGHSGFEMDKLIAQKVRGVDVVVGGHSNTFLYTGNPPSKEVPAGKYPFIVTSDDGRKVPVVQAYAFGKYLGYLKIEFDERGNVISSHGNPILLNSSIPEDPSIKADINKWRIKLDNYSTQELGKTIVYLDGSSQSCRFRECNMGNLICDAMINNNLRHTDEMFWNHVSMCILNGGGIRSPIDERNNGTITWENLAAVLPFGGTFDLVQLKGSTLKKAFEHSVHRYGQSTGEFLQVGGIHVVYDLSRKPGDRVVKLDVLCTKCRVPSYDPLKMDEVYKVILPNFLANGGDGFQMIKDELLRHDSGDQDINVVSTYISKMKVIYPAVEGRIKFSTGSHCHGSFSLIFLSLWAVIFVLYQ

[8] = Plasma protein binding, mouse plasma; type: in vitro ADME; conditions: mouse, plasma
[9] = Microsomal stability assay, mouse liver microsomes; type: in vitro ADME; conditions: for Mics (m) comp remaining 60 min: 10 μM; for microsomal CLint at 10 µM: pooled liver microsomes, pH 7.4, read-out: Mics (m) CLint
[10] = Microsomal stability assay, human liver microsomes; type: in vitro ADME; conditions: for Mics (hu) comp remaining 60 min: 10 μM; for microsomal CLint at 10 µM: pooled liver microsomes, pH 7.4, read-out: Mics (hu) CLint
[11] = in vivo PK in mice, unit not given
[12] = male, CD-1, mouse, plasma, iv, 1 mg/kg, footnote: t1/2 stability in plasma, text: half-life in mouse PK, intravenous
[13] = mouse, plasma, 1 mg/kg, male CD-1 mice, intravenous, single dose, read-out: Cl (obs), observed clearance
[14] = Tables 1 and 3, human plasma as printed in footnote, read-out: fup, fraction unbound in human plasma
[15] = human plasma protein binding, read-out: PPB (hu) (converted)
[16] = mouse plasma protein binding, read-out: PPB (m) (converted)

Compound | half-life at 10 µM (in vitro [1]) [h] | half-life at 10 µM (in vitro [3]) [h] | clearance [4, 11] | half-life [4, 12] [h] | clearance [4, 13] [mL/min/kg] | solubility at 2 h [5] [µM] | fraction unbound at 4 h, 100 µM [6, 14] | fraction unbound at 4 h, 100 µM [6, 15] | dG_exp, experimental binding free energy [7] | fraction unbound at 4 h, 100 µM [8, 16] | Mics (m) comp remaining 60 min [9] [%] | microsomal CLint at 10 µM [9] [µL/min/mg] | Mics (hu) comp remaining 60 min [10] [%] | microsomal CLint at 10 µM [10] [µL/min/mg] | IC50 (HL-60) [µM] | IC50 (HepG2) [µM] | IC50 (HeLa S3) [µM] | IC50 [2] [µM] | IC50 (CCRF-CEM) [µM] | also measured
O=P(O)(O)CP(=O)(O)OC[C@H]1O[C@@H](n2ccc3c(-c4cccc5c4CCCC5)ncnc32)[C@H](O)[C@@H]1O [4A.12] | > 2 | > 2 |  | 2.17 |  | 94 (≈ 50.7 µg/mL) | 0.38 | 0.073 | –15.1 kcal/mol | 0.381 | 100 | < 1 | 96 | 1 | > 10 | > 10 | > 10 | > 10 | > 10 | clearance ([4]; male, CD-1, mouse, plasma, iv, 1 mg/kg, in vivo PK in mice, unit inferred, read-out: clearance): 2.1 mL/min/kg
O=P(O)(O)CP(=O)(O)OC[C@H]1O[C@@H](n2ccc3c(-c4ccnc5ccccc45)ncnc32)[C@H](O)[C@@H]1O [4A.17] | > 2 | > 2 |  | 2.15 | 7.2 | > 100 | 0.8 | 0.257 | –14.3 kcal/mol | 0.8 | 79 | 9 |  | < 1 | > 10 | > 10 | > 10 | > 10 | > 10 | 

The next lines start with results.

half-life at 10 µM (in vitro [1]) [h] | half-life at 10 µM (in vitro [3]) [h] | clearance [4, 11] | half-life [4, 12] [h] | clearance [4, 13] [mL/min/kg] | solubility at 2 h [5] [µM] | fraction unbound at 4 h, 100 µM [6, 14] | fraction unbound at 4 h, 100 µM [6, 15] | dG_exp, experimental binding free energy [7] | fraction unbound at 4 h, 100 µM [8, 16] | Mics (m) comp remaining 60 min [9] [%] | microsomal CLint at 10 µM [9] [µL/min/mg] | Mics (hu) comp remaining 60 min [10] [%] | microsomal CLint at 10 µM [10] [µL/min/mg] | Compound | IC50 (HL-60) [µM] | IC50 (HepG2) [µM] | IC50 (HeLa S3) [µM] | IC50 [2] [µM] | IC50 (CCRF-CEM) [µM] | also measured
> 2 | > 2 | high clearance | 0.15 | 11 | 98 (≈ 51.5 µg/mL) | 0.37 | 0.019 | –13.5 kcal/mol | 0.371 |  |  |  |  | O=P(O)(O)CP(=O)(O)OC[C@H]1O[C@@H](n2ccc3c(-c4cc5ccccc5o4)ncnc32)[C@H](O)[C@@H]1O [4A.8] | > 10 | > 10 | > 10 | > 10 | > 10 | t1/2 (half-life) ([4]; footnote: t1/2 stability in plasma, text: half-life in mouse PK, intravenous): 8.5 min
> 2 | > 2 | moderate clearance | 2.38 | 3.5 | > 100 | 0.13 | 0.004 | –12.9 kcal/mol | 0.135 |  |  |  |  | O=P(O)(O)CP(=O)(O)OC[C@H]1O[C@@H](n2ccc3c(-c4cccc5c4oc4ccccc45)ncnc32)[C@H](O)[C@@H]1O [4A.10] | 9.5 | > 10 | > 10 | > 10 | > 10 | 
> 2 | > 2 |  | 0.105 | 8.3 | > 100 |  | 0.098 | –15.2 kcal/mol | 0.818 | 106 | < 1 | 98 | 2 | O=P(O)(O)CP(=O)(O)OC[C@H]1O[C@@H](n2ccc3c(-c4ccco4)nc(Cl)nc32)[C@H](O)[C@@H]1O [7B.1, [(5-{[2-Chloro-4-(furan-2-yl)-7H-pyrrolo[2,3-d]pyrimidin-7-yl]-β-D-ribofuranosyl}oxy)phosphonomethyl]phosphonic Acid] | 5.6 | > 10 | > 10 | > 10 | 8.8 | fraction unbound at 4 h, 100 µM ([8]; Tables 2 and 4, mouse plasma, read-out: fup, fraction unbound in mouse plasma): 0.92
